Data from patent US7192906B2, “Substituted pyrazole derivatives, production process thereof, and herbicide compositions containing the derivatives” (SDS Biotech K.K., priority 2001, dated 2007).

Experiments:
Format in all cases: in vivo
Stellaria media [1] = assay: Test Example 1 upland field foliage treatment; details: Table 4, upland field foliage treatment, index 0-5
Outline: (§1)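 Scored 0–5 (0: under 10%, 5: 90% or more effect or phytotoxicity) on day 21 after treatment; plants sown in upland soil received a leaf-surface spray 14 days post-sowing of diluted wettable powder delivering 1 kg active ingredient/ha.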

Digitaria adscendens [2] = assay: Test Example 1 upland field foliage treatment; details: Table 4, upland field foliage treatment, index 0-5
Outline: as §1

Setaria viridis [3] = assay: Test Example 1 upland field foliage treatment; details: Table 4, upland field foliage treatment, index 0-5
Outline: as §1

Chenopodium album [4] = assay: Test Example 1 upland field foliage treatment; details: Table 4, upland field foliage treatment, index 0-5
Outline: as §1

Rice (Oryza sativa) = assay: Test Example 3 paddy field treatment, crop phytotoxicity; details: paddy field treatment, transplanted rice Koshihikari, wettable powder, active ingredient 1 kg per hectare, 21st day after the dropping, index 0-5
Outline: (§2)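 Scoring used a 0–5 scale of herbicidal effect or phytotoxicity, from <10% to ≥90%, taken 21 days after treatment. Treatment was 1 kg a.i./ha as diluted wettable powder dripped onto 4 cm-deep flooded pots sown with the weeds, 10 days after transplanting two-leaf Koshihikari rice.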

[5] = tested on: wheat (Triticum aestivum); assay: Test Example 1 upland field foliage treatment, crop phytotoxicity; details: Table 4, upland field foliage treatment, index 0-5
Outline: as §1

soybean (Glycine max) [6] = assay: as above; details: Table 4, upland field foliage treatment, index 0-5
Outline: as §1

[7] = tested on: wheat (Triticum aestivum); assay: Test Example 2 upland soil treatment, crop phytotoxicity; details: Table 5, upland soil treatment, index 0-5
Outline: (§3)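 Pre-emergence soil treatment: seeds sown in upland soil in pots and covered with about 1 cm soil. Next day, a water-diluted wettable powder was sprayed evenly on the soil surface at 1 kg active ingredient per hectare. Weed control or crop injury was scored 0–5 (10% to ≥90% bands) 21 days later.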

soybean (Glycine max) [8] = assay: as above; details: Table 5, upland soil treatment, index 0-5
Outline: as §3

Monochoria vaginalis = assay: Test Example 3 paddy field treatment; details: paddy field treatment, wettable powder, active ingredient 1 kg per hectare, 21st day after the dropping, index 0-5
Outline: as §2

Scirpus juncoides = assay: Test Example 3 paddy field treatment; details: paddy field treatment, wettable powder, active ingredient 1 kg per hectare, 21st day after the dropping, index 0-5
Outline: as §2

Ammannia multiflora = assay: Test Example 3 paddy field treatment; details: paddy field treatment, wettable powder, active ingredient 1 kg per hectare, 21st day after the dropping, index 0-5
Outline: as §2

Echinochloa crusgalli = assay: Test Example 3 paddy field treatment; details: paddy field treatment, wettable powder, active ingredient 1 kg per hectare, 21st day after the dropping, index 0-5
Outline: as §2

Stellaria media [9] = assay: Test Example 2 upland soil treatment; details: Table 5, upland soil treatment, index 0-5
Outline: as §3

Digitaria adscendens [10] = assay: Test Example 2 upland soil treatment; details: Table 5, upland soil treatment, index 0-5
Outline: as §3

Setaria viridis [11] = assay: Test Example 2 upland soil treatment; details: Table 5, upland soil treatment, index 0-5
Outline: as §3

Chenopodium album [12] = assay: Test Example 2 upland soil treatment; details: Table 5, upland soil treatment, index 0-5
Outline: as §3

Row | Structure (SMILES) | Herbicidal activity SM: Stellaria media (Stellaria media [1]) | Herbicidal activity DA: Digitaria adscendens (Digitaria adscendens [2]) | Herbicidal activity SV: Setaria viridis (Setaria viridis [3]) | Herbicidal activity CA: Chenopodium album (Chenopodium album [4]) | Herbicidal activity OS (phytotoxicity to rice) (Rice (Oryza sativa)) | Herbicidal activity (phytotoxicity) TA: Wheat (Triticum aestivum) [5] | Herbicidal activity (phytotoxicity) GM: Soybean (Glycine max) (soybean (Glycine max) [6]) | Herbicidal activity (phytotoxicity) TA: Wheat (Triticum aestivum) [7] | Herbicidal activity (phytotoxicity) GM: Soybean (Glycine max) (soybean (Glycine max) [8]) | Herbicidal activity MV (Monochoria vaginalis) | Herbicidal activity SJ (Scirpus juncoides) | Herbicidal activity AM (Ammannia multiflora) | Herbicidal activity EC (Echinochloa crusgalli) | Herbicidal activity SM: Stellaria media (Stellaria media [9]) | Herbicidal activity DA: Digitaria adscendens (Digitaria adscendens [10]) | Herbicidal activity SV: Setaria viridis (Setaria viridis [11]) | Herbicidal activity CA: Chenopodium album (Chenopodium album [12])
1 | CON=C(Cn1cc(C)c(-c2ccccc2)n1)C(=O)NCC(F)(F)F [Compound 34] | 4 (herbicidal effect of not less than 70% and less than 90%, or phytotoxicity of 70% or more and less than 90%) | 5 (herbicidal effect of not less than 90%, or phytotoxicity of 90% or more) | 4 (herbicidal effect of not less than 70% and less than 90%, or phytotoxicity of 70% or more and less than 90%) | 4 (herbicidal effect of not less than 70% and less than 90%, or phytotoxicity of 70% or more and less than 90%) | 1 (herbicidal effect of not less than 10% and less than 30%, or phytotoxicity of 10% or more and less than 30%) | 0 (herbicidal effect of not less than 0% and less than 10%, or phytotoxicity of 0% or more and less than 10%) | 0 (herbicidal effect of not less than 0% and less than 10%, or phytotoxicity of 0% or more and less than 10%) | 0 (herbicidal effect of not less than 0% and less than 10%, or phytotoxicity of 0% or more and less than 10%) | 0 (herbicidal effect of not less than 0% and less than 10%, or phytotoxicity of 0% or more and less than 10%) | 5 (herbicidal effect of not less than 90%, or phytotoxicity of 90% or more) | 5 (herbicidal effect of not less than 90%, or phytotoxicity of 90% or more) | 5 (herbicidal effect of not less than 90%, or phytotoxicity of 90% or more) | 5 (herbicidal effect of not less than 90%, or phytotoxicity of 90% or more) | 5 (herbicidal effect of not less than 90%, or phytotoxicity of 90% or more) | 5 (herbicidal effect of not less than 90%, or phytotoxicity of 90% or more) | 4 (herbicidal effect of not less than 70% and less than 90%, or phytotoxicity of 70% or more and less than 90%) | 5 (herbicidal effect of not less than 90%, or phytotoxicity of 90% or more)
2 | C=CCNC(=O)C(Cn1cc(C)c(-c2ccccc2)n1)=NOC [Compound 26] | 5 (herbicidal effect of not less than 90%, or phytotoxicity of 90% or more) | 5 (herbicidal effect of not less than 90%, or phytotoxicity of 90% or more) | 4 (herbicidal effect of not less than 70% and less than 90%, or phytotoxicity of 70% or more and less than 90%) | 5 (herbicidal effect of not less than 90%, or phytotoxicity of 90% or more) | 0 (herbicidal effect of not less than 0% and less than 10%, or phytotoxicity of 0% or more and less than 10%) | 0 (herbicidal effect of not less than 0% and less than 10%, or phytotoxicity of 0% or more and less than 10%) | 0 (herbicidal effect of not less than 0% and less than 10%, or phytotoxicity of 0% or more and less than 10%) | 0 (herbicidal effect of not less than 0% and less than 10%, or phytotoxicity of 0% or more and less than 10%) | 0 (herbicidal effect of not less than 0% and less than 10%, or phytotoxicity of 0% or more and less than 10%) | 5 (herbicidal effect of not less than 90%, or phytotoxicity of 90% or more) | 5 (herbicidal effect of not less than 90%, or phytotoxicity of 90% or more) | 5 (herbicidal effect of not less than 90%, or phytotoxicity of 90% or more) | 5 (herbicidal effect of not less than 90%, or phytotoxicity of 90% or more) | 5 (herbicidal effect of not less than 90%, or phytotoxicity of 90% or more) | 5 (herbicidal effect of not less than 90%, or phytotoxicity of 90% or more) | 4 (herbicidal effect of not less than 70% and less than 90%, or phytotoxicity of 70% or more and less than 90%) | 5 (herbicidal effect of not less than 90%, or phytotoxicity of 90% or more)
3 | CON=C(Cn1cc(C)c(-c2ccc(Cl)cc2)n1)C(N)=O [Compound 17] | 5 (herbicidal effect of not less than 90%, or phytotoxicity of 90% or more) | 5 (herbicidal effect of not less than 90%, or phytotoxicity of 90% or more) | 5 (herbicidal effect of not less than 90%, or phytotoxicity of 90% or more) | 5 (herbicidal effect of not less than 90%, or phytotoxicity of 90% or more) | 0 (herbicidal effect of not less than 0% and less than 10%, or phytotoxicity of 0% or more and less than 10%) | 0 (herbicidal effect of not less than 0% and less than 10%, or phytotoxicity of 0% or more and less than 10%) | 0 (herbicidal effect of not less than 0% and less than 10%, or phytotoxicity of 0% or more and less than 10%) | 0 (herbicidal effect of not less than 0% and less than 10%, or phytotoxicity of 0% or more and less than 10%) | 0 (herbicidal effect of not less than 0% and less than 10%, or phytotoxicity of 0% or more and less than 10%) | 5 (herbicidal effect of not less than 90%, or phytotoxicity of 90% or more) | 4 (herbicidal effect of not less than 70% and less than 90%, or phytotoxicity of 70% or more and less than 90%) | 5 (herbicidal effect of not less than 90%, or phytotoxicity of 90% or more) | 4 (herbicidal effect of not less than 70% and less than 90%, or phytotoxicity of 70% or more and less than 90%) | 4 (herbicidal effect of not less than 70% and less than 90%, or phytotoxicity of 70% or more and less than 90%) | 4 (herbicidal effect of not less than 70% and less than 90%, or phytotoxicity of 70% or more and less than 90%) | 4 (herbicidal effect of not less than 70% and less than 90%, or phytotoxicity of 70% or more and less than 90%) | 4 (herbicidal effect of not less than 70% and less than 90%, or phytotoxicity of 70% or more and less than 90%)
